We go through 16 molecules from US4661602A, “Substituted alkyl imidazole derivatives” (G. D. Searle & Co., priority 1985, dated 1987).

In brackets after ≈: the same amount, converted by molar mass. Where a name gives a salt, the structure may show the parent alone.

One assay concerns B. Fragilis NCTC 9343. Put plainly: Anti-anaerobic activity, strain B (microtitre plate MIC/MBC). To be noted: Bacteroides fragilis, NCTC9343, 48 h, strain B; for MIC: 48 hours, 37° C., anaerobic chamber, lowest concentration with no detectable growth, read-out: MIC; for MBC: less than 5 colonies (99.9% reduction in viable count) after 48 hours, read-out: MBC. The assay is classed as cell-based, Bacteroides fragilis.

A further assay deals with B. Fragilis NCTC 10581. Put plainly: Anti-anaerobic activity, strain A (microtitre plate MIC/MBC). The assay is classed as cell-based, Bacteroides fragilis. To be noted: Bacteroides fragilis, NCTC10581, 48 h, strain A; for MIC: 48 hours, 37° C., anaerobic chamber, lowest concentration with no detectable growth, read-out: MIC; for MBC: less than 5 colonies (99.9% reduction in viable count) after 48 hours, read-out: MBC.

A further assay deals with B. Fragilis WS-1. The assay can be described thus: Anti-anaerobic activity, strain E (microtitre plate MIC/MBC). As to conditions: Bacteroides fragilis, 48 h, strain E; for MIC: 48 hours, 37° C., anaerobic chamber, lowest concentration with no detectable growth, read-out: MIC; for MBC: less than 5 colonies (99.9% reduction in viable count) after 48 hours, read-out: MBC. The format is cell-based.

The test system of another assay is B. Fragilis ATCC 11295. Put plainly: Anti-anaerobic activity, strain D (microtitre plate MIC/MBC). The format is cell-based. To be noted: Bacteroides fragilis, ATCC11295, 48 h, strain D; for MIC: 48 hours, 37° C., anaerobic chamber, lowest concentration with no detectable growth; for MBC: less than 5 colonies (99.9% reduction in viable count) after 48 hours, read-out: MBC.

In a further assay the test system is B. Fragilis NCTC 9344. The assay can be described thus: Anti-anaerobic activity, strain C (microtitre plate MIC/MBC). As to conditions: Bacteroides fragilis, NCTC9344, 48 h, strain C; for MIC: 48 hours, 37° C., anaerobic chamber, lowest concentration with no detectable growth, read-out: MIC; for MBC: less than 5 colonies (99.9% reduction in viable count) after 48 hours, read-out: MBC. The format is cell-based.

One may read the MIC as the smallest concentration in the dilution series that meets the test's criterion for growth inhibition. The term MBC denotes the smallest concentration meeting the test's criterion for killing.

`c1ccc(CCCN2CCN=C2C(Cn2ccnc2)c2ccccc2)cc1` (stereo not drawn) [Example 18, 4,5-Dihydro-2-[2-(imidazol-1-yl)-1-phenylethyl]-1-(3-phenylpropyl)imidazoledihydrochloride]: the minimum inhibitory concentration (MIC) in the assay on B. Fragilis NCTC 9343 is 25 µg/mL; in the assay with B. Fragilis NCTC 10581, 25 µg/mL; in the assay on B. Fragilis WS-1, 25 µg/mL; with B. Fragilis ATCC 11295 it was 25 µg/mL; with B. Fragilis NCTC 9344 it was 50 µg/mL.

Consider `Clc1ccc(N2CCN=C2C(Cn2cncn2)c2ccccc2)c(Cl)c1` (stereo not drawn) [Example 20, 1-(2,4-Dichlorophenyl)-4,5-dihydro-2-[1-phenyl-2-(1,2,4-triazol-1-yl)ethyl]imidazole], for which the MIC came out at 25 µg/mL (≈ 64.7 µM) in the assay with B. Fragilis NCTC 9343; 12.5 µg/mL (≈ 32.4 µM) with B. Fragilis NCTC 10581; 25 µg/mL (≈ 64.7 µM) in the assay with B. Fragilis WS-1; 25 µg/mL (≈ 64.7 µM) against B. Fragilis ATCC 11295; 25 µg/mL (≈ 64.7 µM) with B. Fragilis NCTC 9344.

As for `FC(F)(F)c1cccc(N2CCN=C2C(Cn2ccnc2)c2ccccc2)c1` (stereo not drawn) [Example 4, 4,5-Dihydro-2-[2-(imidazol-1-yl)-1-phenylethyl]-1-(3-trifluoromethylphenyl)imidazole hydrochloride], the MIC in the assay on B. Fragilis NCTC 9343 was 12.5 µg/mL; with B. Fragilis NCTC 10581, 6.2 µg/mL; with B. Fragilis WS-1, 12.5 µg/mL; in the assay on B. Fragilis ATCC 11295, 12.5 µg/mL; in the assay on B. Fragilis NCTC 9344, 12.5 µg/mL.

For `CCCCCCCCN1CCN=C1C(Cn1ccnc1)c1ccccc1` (stereo not drawn) [Example 19, 4,5-Dihydro-2-[2-(imidazol-1-yl)-1-phenylethyl]-1-n-octylimidazole dihydrochloride], the MBC came to 6.2 µg/mL with B. Fragilis NCTC 9343; 25 µg/mL in the assay with B. Fragilis NCTC 10581; 12.5 µg/mL with B. Fragilis WS-1; 100 µg/mL in the assay with B. Fragilis ATCC 11295; 25 µg/mL in the assay on B. Fragilis NCTC 9344. The minimal inhibitory concentration (MIC) in the assay with B. Fragilis NCTC 10581 turned out to be 12.5 µg/mL; in the assay on B. Fragilis WS-1, 12.5 µg/mL; against B. Fragilis ATCC 11295, 25 µg/mL; in the assay on B. Fragilis NCTC 9344, 12.5 µg/mL.

On to `Brc1ccc(N2CCN=C2C(Cn2ccnc2)c2ccccc2)c(Br)c1` (stereo not drawn) [Example 2, 1-(2,4-Dibromophenyl)-4,5-dihydro-2-[2-imidazol-1-yl)-1-phenylethyl]imidazole dihydrochloride], for which the MBC came to 12.5 µg/mL with B. Fragilis NCTC 9343; 3.1 µg/mL in the assay on B. Fragilis NCTC 10581; 2.5 µg/mL in the assay on B. Fragilis WS-1; 12.5 µg/mL in the assay with B. Fragilis ATCC 11295; 50 µg/mL in the assay on B. Fragilis NCTC 9344. Also, the MIC against B. Fragilis ATCC 11295 and in the assay with B. Fragilis NCTC 9344 was 1.5 µg/mL throughout.

For `Cc1nccn1CC(C1=NCCN1c1ccc(Cl)cc1Cl)c1ccccc1` (stereo not drawn) [Example 21, 1-(2,4-Dichlorophenyl)-4,5-dihydro-2-[2-(2-methylimidazol-1-yl)-1-phenylethyl]imidazole dihydrochloride], the minimal inhibitory concentration (MIC) in the assay with B. Fragilis NCTC 9343 turned out to be 1.5 µg/mL; in the assay with B. Fragilis NCTC 10581 it was 12.5 µg/mL. The MBC in the assay with B. Fragilis NCTC 9343 worked out at 1.5 µg/mL; in the assay with B. Fragilis NCTC 10581 it was 12.5 µg/mL; in the assay with B. Fragilis WS-1, 0.8 µg/mL; in the assay on B. Fragilis ATCC 11295, 0.8 µg/mL; in the assay with B. Fragilis NCTC 9344, 0.8 µg/mL.

On to `CCCCCCCCCCN1CCN=C1C(Cn1ccnc1)c1ccccc1.Cl.Cl` (stereo not drawn) [Example 26, 1-n-Decyl-4,5-dihydro-2-[2-(imidazol-1-yl)-1-phenylethyl]imidazole dihydrochloride], for which the minimum inhibitory concentration (MIC) with B. Fragilis NCTC 10581 came out at 2.1 µg/mL. For the same molecule, the MBC in the assay on B. Fragilis NCTC 10581 turned out to be 3.1 µg/mL; with B. Fragilis WS-1, 3.1 µg/mL; with B. Fragilis ATCC 11295, 50 µg/mL; with B. Fragilis NCTC 9344, 3.1 µg/mL.

Take `Clc1ccc(CN2CCN=C2C(Cn2ccnc2)c2ccccc2)c(Cl)c1` (stereo not drawn) [Example 15, 1-(2,4-Dichlorophenylmethyl)-4,5-dihydro-2-[2-(imidazol-1-yl)-1-phenylethyl]imidazole]: the minimum inhibitory concentration (MIC) in the assay with B. Fragilis WS-1 turned out to be 6.2 µg/mL (≈ 15.5 µM).

Take `Clc1ccc(N2CCN=C2C(CCn2ccnc2)c2ccccc2)c(Cl)c1` (stereo not drawn) [Example 27, 1-(2,4-Dichlorophenyl)-4,5-dihydro-2-[3-(imidazol-1-yl)-1-phenylpropyl]imidazole]: the MIC in the assay on B. Fragilis NCTC 9343 stood at 100 µg/mL (≈ 250 µM); in the assay on B. Fragilis NCTC 10581, 100 µg/mL (≈ 250 µM); with B. Fragilis WS-1 it was 12.5 µg/mL (≈ 31.3 µM); with B. Fragilis ATCC 11295 it was 100 µg/mL (≈ 250 µM); in the assay on B. Fragilis NCTC 9344, 100 µg/mL (≈ 250 µM).

For the molecule `Clc1ccc(CN2CCN=C2C(Cn2cccn2)c2ccccc2)c(Cl)c1` (stereo not drawn) [Example 16, 1-(2,4-Dichlorophenylmethyl)-4,5-dihydro-2-[1-phenyl-2-(pyrazol-1-yl)ethyl]imidazole dihydrochloride], in the assay on B. Fragilis WS-1, the MIC was found to be 100 µg/mL.

As to `CC1=NCCN1CC(C1=NCCN1c1ccc(Cl)cc1Cl)c1ccccc1` (stereo not drawn) [Example 23, 1-(2,4-Dichlorophenyl)-4,5-dihydro-2-[2-(4,5-dihydro-2-methylimidazol-1-yl)-1-phenylethyl]imidazole dihydrochloride], the MIC in the assay on B. Fragilis NCTC 9343, in the assay with B. Fragilis NCTC 10581, against B. Fragilis ATCC 11295 and in the assay on B. Fragilis NCTC 9344 was 1.5 µg/mL each time. In addition, the MBC with B. Fragilis NCTC 9343 came to 3.1 µg/mL; in the assay with B. Fragilis NCTC 10581, 1.5 µg/mL; in the assay on B. Fragilis WS-1, 1.5 µg/mL; in the assay with B. Fragilis ATCC 11295, 1.5 µg/mL; in the assay with B. Fragilis NCTC 9344 it was 1.5 µg/mL.

In the case of `Clc1ccccc1N1CCN=C1C(Cn1ccnc1)c1ccccc1` (stereo not drawn) [Example 1, 1-(2-Chlorophenyl)-4,5-dihydro-2[2-(imidazol-1-yl)-1-phenylethyl]imidazole], the MIC came to 12.5 µg/mL (≈ 35.6 µM) in the assay with B. Fragilis NCTC 9343, 12.5 µg/mL (≈ 35.6 µM) with B. Fragilis WS-1, 6.2 µg/mL (≈ 17.7 µM) with B. Fragilis ATCC 11295 and 6.2 µg/mL (≈ 17.7 µM) in the assay on B. Fragilis NCTC 9344.

For the molecule `CSc1nccn1CC(C1=NCCN1c1ccc(Cl)cc1Cl)c1ccccc1` (stereo not drawn) [Example 22, 1-(2,4-Dichlorophenyl)-4,5-dihydro-2-[1-phenyl-2-(2-thiomethylimidazol-1-yl)ethyl]imidazole dihydrochloride], the figures for the minimum inhibitory concentration (MIC) with B. Fragilis NCTC 9343 and with B. Fragilis NCTC 10581 were 1.5 µg/mL and 6.2 µg/mL, respectively. The MBC was determined as 1.5 µg/mL in the assay with B. Fragilis NCTC 9343; 6.2 µg/mL in the assay on B. Fragilis NCTC 10581; 3.1 µg/mL with B. Fragilis WS-1; 3.1 µg/mL in the assay on B. Fragilis ATCC 11295; 3.1 µg/mL with B. Fragilis NCTC 9344.

As to `Clc1ccc(CN2CCN=C2C(Cn2cncn2)c2ccccc2)c(Cl)c1` (stereo not drawn) [Example 17, 1-(2,4-Dichlorophenylmethyl)-4,5-dihydro-2-[1-phenyl-2-(1,2,4-triazol-1-yl)ethyl]imidazole dihydrochloride], the minimum inhibitory concentration (MIC) with B. Fragilis NCTC 10581, in the assay with B. Fragilis WS-1, against B. Fragilis ATCC 11295 and in the assay with B. Fragilis NCTC 9344 was 50 µg/mL each time.

As to `CCCCCCN1CCN=C1C(Cn1ccnc1)c1ccccc1.Cl` (stereo not drawn) [Example 25, 4,5-Dihydro-1-n-hexyl-2-[2-(imidazol-1-yl)-1-phenylethyl]imidazole hydrochloride], the minimal inhibitory concentration (MIC) with B. Fragilis NCTC 9343 is 100 µg/mL; with B. Fragilis NCTC 10581 it was 25 µg/mL; in the assay on B. Fragilis WS-1 it was 100 µg/mL; with B. Fragilis ATCC 11295 it was 100 µg/mL; in the assay with B. Fragilis NCTC 9344 it was 100 µg/mL.

Take `Cc1ccc(N2CCN=C2C(Cn2ccnc2)c2ccccc2)c(C)c1` (stereo not drawn) [Example 24, 4,5-Dihydro-1-(2,4-dimethylphenyl)-2-[2-(imidazol-1-yl)-1-phenylethyl]imidazole dihydrochloride]: the minimal inhibitory concentration (MIC) in the assay on B. Fragilis NCTC 9343 worked out at 12.5 µg/mL; with B. Fragilis NCTC 10581, 25 µg/mL; in the assay with B. Fragilis WS-1 it was 25 µg/mL; against B. Fragilis ATCC 11295, 12.5 µg/mL; in the assay with B. Fragilis NCTC 9344, 12.5 µg/mL.
